From US7514421B2, “Use of an IBAT inhibitor for the treatment of constipation” (Albireo AB, priority 2003, dated 2009)

Test system: constipated dog
Assay: Buenos dog model for constipation (low fibre/high protein diet, 20 g meat/kg dog/day)
Type: in vivo
Conditions: constipated dogs
Description: As stated hereinbefore the compounds defined in the present invention are useful in the treatment of functional constipation and C-IBS. These properties may be assessed, for example, using models known in the art: • Buenos dog model for constipation, (Hepato-gasteroenterology, 1980, 27, 381-389).
Once constipation has been induced the animals can be dosed with an IBAT inhibitor to asses the ability of the IBAT inhibitor to relieve the constipation.
The following data was generated using the Buenos dog model (method described in the publication above) with the modification that the dogs were given 20 g meat/kg dog/day. The result is calculated as mean value of the increase of faeces during the three treatment days subtracted with the entry value (day before start of treatment with the IBAT inhibitor). The dogs were judge as constipation if there faeces amount per day was below 30 gram.

SMILES	Result: mean increase of faeces during the three treatment days subtracted with the entry value (dose 5 μmol/kg, 3 animals) [g/day]	Result: mean increase of faeces during the three treatment days subtracted with the entry value (dose 5 μmol/kg, 3 animals, listed as compound 1) [g/day]	Result: mean increase of faeces during the three treatment days subtracted with the entry value (dose 1.5 μmol/kg, 2 animals) [g/day]	Result: mean increase of faeces during the three treatment days subtracted with the entry value (dose 1.5 μmol/kg, 2 animals, listed as compound 2) [g/day]	Result: mean increase of faeces during the three treatment days subtracted with the entry value (dose 1.5 μmol/kg, 2 animals, listed as compound 3) [g/day]
CCCCC1(CCCC)CN(c2ccccc2)c2cc(SC)c(OCC(=O)N[C@@H](C(=O)NCCS(=O)(=O)O)c3ccc(O)cc3)cc2S(=O)(=O)N1 [Compound 1, 1,1-Dioxo-3,3-dibutyl-5-phenyl-7-methylthio-8-(N-{(R)-α-[N-(2-sulphoethyl)carbamoyl]-4-hydroxybenzyl}carbamoylmethoxy)-2,3,4,5-tetrahydro-1,2,5-benzothiadiazepine]	38 ± 7	38 ± 7	–	–	–
CCCCC1(CCCC)CN(c2ccccc2)c2cc(SC)c(OCC(=O)N[C@@H](C(=O)N[C@H](C(=O)O)[C@@H](C)O)c3ccc(O)cc3)cc2S(=O)(=O)N1 [Compound 2, 1,1-Dioxo-3,3-dibutyl-5-phenyl-7-methylthio-8-(N-{(R)-α-[N-((S)-1-carboxy-2-(R)-hydroxypropyl)carbamoyl]-4-hydroxybenzyl}carbamoylmethoxy)-2,3,4,5-tetrahydro-1,2,5-benzothiadiazepine]	–	–	23 ± 11	23 ± 11	–
CCCCC1(CCCC)CN(c2ccccc2)c2cc(SC)c(OCC(=O)N[C@@H](C(=O)N[C@H](C(=O)O)C(C)C)c3ccc(O)cc3)cc2S(=O)(=O)N1 [Compound 3, 1,1-Dioxo-3,3-dibutyl-5-phenyl-7-methylthio-8-(N-{(R)-α-[N-((S)-1-carboxy-2-methylpropyl)carbamoyl]-4-hydroxybenzyl}carbamoylmethoxy)-2,3,4,5-tetrahydro-1,2,5-benzothiadiazepine]	–	–	39 ± 2	–	39 ± 2
